Laboratory results as given in patent publication US9429582B2, “Tyrosine-phosphorylated WBP2, a novel cancer target and biomarker” (National University of Singapore, priority 2010, dated 2016).
Like-named read-outs stand apart in the source and are kept apart here.

What was measured:
Format in all cases: cell-based, human
[1] = system: WBP2-Y192-231E mutant-expressing MCF7; test: Cell proliferation (MTS / cell numbers) of WBP2-Y192-231E mutant-expressing MCF7
Procedure: (§1) A: Whole cell lysates from vector, WBP2-WT, WBP2-Y192-231E mutant and WBP2-Y192-231F mutant expressing MCF7 or Y192-231E mutant expressing MCF7 with WBP2 knockdown were used for IB analysis with antibodies indicated. B: Vector, WBP2-WT, WBP2-Y192-231E mutant or WBP2-Y192-231F mutant-expressing MCF7 were co-transfected with TOPFlash (top panel) or ERE-Luciferase (bottom panel) reporter construct. For cells co-transfected ERE-luciferase, they were either left alone or stimulated with 50 ng/ml Wnt3a ligand for 16 hrs. TCF/ERα luciferase activities in various conditions were then assayed. **P<0.01, ***P<0.001, Student's t-test (2-tailed). C: Vector or WBP2-Y192-231E mutant-expressing MCF7 were treated with indicated concentrations of Tamoxifen(Tam) and/or FH535. Cell numbers were measured. D: Whole cell lysates from WBP2-Y192-231E mutant-expressing MCF7 treated with 2 μM Tam and/or 15 μM FH5353 were harvested at day 2-4 post-treatment and used for IB analysis with antibodies indicated.
Effect of knockdown of E2F1 and E2F3 on MCF7 cells overexpressing WBP2-Y192-231E. A. MCF7 cells expressing WBP2-Y192-231E were transfected with indicated siRNAs and knockdown efficiency was confirmed using western blotting. B. Cells were co-transfected with indicated siRNAs and E2F reporter plasmid and harvested for luciferase assay after 48 hours. Luciferase readings were normalized against constitutive TK promoter renilla luciferase readings. C. Cells were transfected with indicated siRNAs and BrdU incorporation assay was performed. Percentages of BrdU positive cells relative to control siRNA treated cells were plotted as bar charts. D. Cells were transfected with indicated siRNAs. MTS assay was performed on day 3. Percentages of cell proliferation relative to control siRNA treated cells were plotted as bar charts.
Whole cell lysates from vector, WBP2-WT, WBP2-Y192-231E mutant and WBP2-Y192-231F mutant expressing MCF7 (A) or Y192-231E mutant expressing MCF7 with WBP2 knockdown (B) were used for IB analysis with antibodies indicated. Their expression levels were quantified in three independent experiments and the averages were presented relative to actin. Representative blots (order in lanes from left to right: vector, WBP2, Y192-231E, Y192F) were presented as insets to the bar graphs. **P<0.01, ***P<0.001, Student's t-test (2-tailed) relative to vector. Vector, WBP2-WT, WBP2-Y192-231E mutant or WBP2-Y192-231F mutant-expressing MCF7 were cotransfected with TOPFlash(C) or ERE-Luciferase(D) reporter construct. For cells co-transfected ERE luciferase, they were either left alone or stimulated with 50 ng/ml Wnt3a ligand for 16 hrs. TCF(C)/ER[…](D) luciferase activities in various conditions were then assayed and analyzed in relative to untreated vector control. **P<0.01, ***P<0.001, Student's t-test (2-tailed). E: Vector or WBP2-Y192-231E mutant-expressing MCF7 were treated with indicated concentrations of 2 µM tamoxifen (Tam) and/or 15 µM FH535 for 4 days. Cell numbers were measured daily and compared in relative to vehicle treated vector-expressing cells on Day 0. F: Vector or WBP2-Y192-231E mutant-expressing MCF7 were treated with indicated concentrations (0-50 µM) of FH535 for 2 days. Cell numbers were measured and compared in relative to vehicle-treated cells. Their […] were analyzed statistically with SPSS 13.0. G: Whole cell lysates from WBP2-Y192-231E mutant-expressing MCF7 treated with 2 μM Tam and/or 15 μM FH5353 were harvested at day 2-4 post-treatment and used for IB analysis with antibodies indicated. H: Vector or WBP2-Y192-231E mutant-expressing MCF7 were treated with indicated concentrations of 100 nM fulvestrant and/or 15 µM FH535 for 4 days. Cell numbers were measured on day 2 and day 4 and compared in relative to vehicle-treated control at each day (Top Panel). These treated cells were harvested for IB analysis with antibodies indicated (Bottom Panel). […]

ERα = test: Immunoblot of ERα expression in drug-treated WBP2-Y192-231E mutant-expressing MCF7
Procedure: For cells co-transfected ERE-luciferase, they were either left alone or stimulated with 50 ng/ml Wnt3a ligand for 16 hrs. TCF/ERα luciferase activities in various conditions were then assayed. **P<0.01, ***P<0.001, Student's t-test (2-tailed). […] Cell numbers were measured.
Their expression levels were quantified in three independent experiments and the averages were presented relative to actin. […] For cells co-transfected ERE luciferase, they were either left alone or stimulated with 50 ng/ml Wnt3a ligand for 16 hrs. TCF(C)/ER[…](D) luciferase activities in various conditions were then assayed and analyzed in relative to untreated vector control. **P<0.01, ***P<0.001, Student's t-test (2-tailed). […] Cell numbers were measured daily and compared in relative to vehicle treated vector-expressing cells on Day 0. […] Cell numbers were measured and compared in relative to vehicle-treated cells. […] Cell numbers were measured on day 2 and day 4 and compared in relative to vehicle-treated control at each day (Top Panel). These treated cells were harvested for IB analysis with antibodies indicated (Bottom Panel).
First, we exposed WBP2 phospho-mimic expressing MCF7 cells to serial concentrations of fulvestrant (0.1 nM, 1 nM, 10 nM, 100 nM and 1 μM) and probed for ERα expression to determine the effective working concentration. […] Next, we compared the growth and proliferation of WBP2 phospho-mimic mutant expressing MCF7 in the presence of 100 nM fulvestrant or 15 μM FH535.

vector-expressing MCF7 = test: Cell proliferation (MTS / cell numbers) of vector-expressing MCF7; conditions: Homo sapiens, 96 h; MCF7 cells expressing vector; day 4; 100 nM fulvestrant or 15 μM FH535; read-out: inhibition of growth / reduction of proliferation
Procedure: as §1
Whole cell lysates from vector, WBP2-WT, WBP2-Y192-231E mutant and WBP2-Y192-231F mutant expressing MCF7 (A) or Y192-231E mutant expressing MCF7 with WBP2 knockdown (B) were used for IB analysis with antibodies indicated. Their expression levels were quantified in three independent experiments and the averages were presented relative to actin. Representative blots (order in lanes from left to right: vector, WBP2, Y192-231E, Y192F) were presented as insets to the bar graphs. **P<0.01, ***P<0.001, Student's t-test (2-tailed) relative to vector. […] TCF(C)/ER[…](D) luciferase activities in various conditions were then assayed and analyzed in relative to untreated vector control. **P<0.01, ***P<0.001, Student's t-test (2-tailed). […] Cell numbers were measured daily and compared in relative to vehicle treated vector-expressing cells on Day 0. […] Cell numbers were measured and compared in relative to vehicle-treated cells. Their […] were analyzed statistically with SPSS 13.0. […] Cell numbers were measured on day 2 and day 4 and compared in relative to vehicle-treated control at each day (Top Panel). […]

| Compound | growth inhibition ([1]; Y192-231E-expressing MCF7 treated with Tamoxifen) | retardation of proliferation ([1]; Y192-231E-expressing cells, higher doses of up to 2000 nM) | ERα expression (ERα) | inhibition at 0.1 µM ([1]; Homo sapiens, 96 h, MCF7 cells expressing Y192-231E mutant, day 4, 100 nM fulvestrant or 15 μM FH535, read-out: inhibition of growth / reduction of proliferation) [%] | inhibition at 0.1 µM (vector-expressing MCF7) [%] | ERα expression (ERα; WBP2 phospho-mimic expressing MCF7, one hundred nM fulvestrant, data not shown) |
| --- | --- | --- | --- | --- | --- | --- |
| CC/C(=C(\c1ccccc1)c1ccc(OCCN(C)C)cc1)c1ccccc1 [Tamoxifen] | No significant growth inhibition | unremarkable | but not Tamoxifen significantly reduced |  |  |  |
| C[C@]12CC[C@@H]3c4ccc(O)cc4C[C@@H](CCCCCCCCC[S+]([O-])CCCC(F)(F)C(F)(F)F)[C@H]3[C@@H]1CC[C@@H]2O (stereo partly drawn) [fulvestrant] |  |  |  | ~40 | ~50 | almost completely abolished |
